Experimental data as given in PubChem BioAssay (NCI).
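Tested at 5 concentrations; 48 h exposure; 96-well plates; endpoints linearly interpolated, else capped at highest concentration. Definition used: TGI = concentration required for complete inhibition of growth.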

How the values were obtained:
Test in all cases: growth of human tumour cells (NCI), 48 h
786-0 renal = test system: 786-0 renal
A549 NSCLC = test system: A549 NSCLC
ACHN renal = test system: ACHN renal
BT-549 breast = test system: BT-549 breast
CAKI-1 renal = test system: CAKI-1 renal
CCRF-CEM leukemia = test system: CCRF-CEM leukemia
COLO 205 colon = test system: COLO 205 colon
DU-145 prostate = test system: DU-145 prostate
EKVX NSCLC = test system: EKVX NSCLC
HCC-2998 colon = test system: HCC-2998 colon
HCT-116 colon = test system: HCT-116 colon
HCT-15 colon = test system: HCT-15 colon
HL-60(TB) leukemia = test system: HL-60(TB) leukemia
HOP-62 NSCLC = test system: HOP-62 NSCLC
HOP-92 NSCLC = test system: HOP-92 NSCLC
HS 578T breast = test system: HS 578T breast
HT29 colon = test system: HT29 colon
IGROV1 ovarian = test system: IGROV1 ovarian
K-562 leukemia = test system: K-562 leukemia
KM12 colon = test system: KM12 colon
LOX IMVI melanoma = test system: LOX IMVI melanoma
M14 melanoma = test system: M14 melanoma
MALME-3M melanoma = test system: MALME-3M melanoma
MCF7 breast = test system: MCF7 breast
MDA-MB-231 breast = test system: MDA-MB-231 breast
MDA-MB-435 = test system: MDA-MB-435
MOLT-4 leukemia = test system: MOLT-4 leukemia
NCI-H226 lung = test system: NCI-H226 lung
NCI-H23 lung = test system: NCI-H23 lung
NCI-H522 lung = test system: NCI-H522 lung
NCI/ADR-RES ovarian = test system: NCI/ADR-RES ovarian
OVCAR-3 ovarian = test system: OVCAR-3 ovarian
OVCAR-4 ovarian = test system: OVCAR-4 ovarian
OVCAR-5 ovarian = test system: OVCAR-5 ovarian
OVCAR-8 ovarian = test system: OVCAR-8 ovarian
PC-3 prostate = test system: PC-3 prostate
RPMI-8226 leukemia = test system: RPMI-8226 leukemia
SF-268 CNS = test system: SF-268 CNS
SF-295 CNS = test system: SF-295 CNS
SF-539 CNS = test system: SF-539 CNS
SK-MEL-2 melanoma = test system: SK-MEL-2 melanoma
SK-MEL-5 melanoma = test system: SK-MEL-5 melanoma
SK-OV-3 ovarian = test system: SK-OV-3 ovarian
SN12C renal = test system: SN12C renal
SNB-19 CNS = test system: SNB-19 CNS
SNB-75 CNS = test system: SNB-75 CNS
SR leukemia = test system: SR leukemia
SW-620 colon = test system: SW-620 colon
T-47D breast = test system: T-47D breast
TK-10 renal = test system: TK-10 renal
U251 CNS = test system: U251 CNS
UACC-257 melanoma = test system: UACC-257 melanoma
UACC-62 melanoma = test system: UACC-62 melanoma
UO-31 renal = test system: UO-31 renal

SMILES: C[C@H]1CC[C@@]2(OC1)O[C@H]1C[C@H]3[C@@H]4CC[C@@H]5C[C@@H](OC6OC(CO)C(O)C(O)C6OC6OC(CO)C(O)C(O)C6O)CC[C@]5(C)[C@H]4CC[C@]3(C)[C@H]1[C@@H]2C (some centres undefined)
- TGI (786-0 renal): 3.69 µM
- TGI (A549 NSCLC): 3.69 µM
- TGI (ACHN renal): 3.82 µM
- TGI (BT-549 breast): 4.1 µM
- TGI (CAKI-1 renal): 3.44 µM
- TGI (CCRF-CEM leukemia): 3.73 µM
- TGI (COLO 205 colon): 3.55 µM
- TGI (DU-145 prostate): 4.1 µM
- TGI (EKVX NSCLC): 3.79 µM
- TGI (HCC-2998 colon): 3.71 µM
- TGI (HCT-116 colon): 3.7 µM
- TGI (HCT-15 colon): 3.67 µM
- TGI (HL-60(TB) leukemia): 3.25 µM
- TGI (HOP-62 NSCLC): 3.99 µM
- TGI (HOP-92 NSCLC): 4.12 µM
- TGI (HS 578T breast): 4.47 µM
- TGI (HT29 colon): 3.68 µM
- TGI (IGROV1 ovarian): 4.14 µM
- TGI (K-562 leukemia): 4.33 µM
- TGI (KM12 colon): 4.62 µM
- TGI (LOX IMVI melanoma): 3.75 µM
- TGI (M14 melanoma): 3.75 µM
- TGI (MALME-3M melanoma): 4.5 µM
- TGI (MCF7 breast): 3.8 µM
- TGI (MDA-MB-231 breast): 3.81 µM
- TGI (MDA-MB-435): 3.88 µM
- TGI (MOLT-4 leukemia): 3.79 µM
- TGI (NCI-H226 lung): 4.2 µM
- TGI (NCI-H23 lung): 4.06 µM
- TGI (NCI-H522 lung): 4.75 µM
- TGI (NCI/ADR-RES ovarian): 5.03 µM
- TGI (OVCAR-3 ovarian): 3.88 µM
- TGI (OVCAR-4 ovarian): 4.08 µM
- TGI (OVCAR-5 ovarian): 3.45 µM
- TGI (OVCAR-8 ovarian): 4.26 µM
- TGI (PC-3 prostate): 3.84 µM
- TGI (RPMI-8226 leukemia): 3.97 µM
- TGI (SF-268 CNS): 4.25 µM
- TGI (SF-295 CNS): 3.95 µM
- TGI (SF-539 CNS): 3.72 µM
- TGI (SK-MEL-2 melanoma): 4.03 µM
- TGI (SK-MEL-5 melanoma): 3.93 µM
- TGI (SK-OV-3 ovarian): 3.29 µM
- TGI (SN12C renal): 3.77 µM
- TGI (SNB-19 CNS): 3.9 µM
- TGI (SNB-75 CNS): 4.07 µM
- TGI (SR leukemia): 4.3 µM
- TGI (SW-620 colon): 3.4 µM
- TGI (T-47D breast): 3.85 µM
- TGI (TK-10 renal): 3.61 µM
- TGI (U251 CNS): 4 µM
- TGI (UACC-257 melanoma): 3.86 µM
- TGI (UACC-62 melanoma): 4.16 µM
- TGI (UO-31 renal): 3.67 µM
